Laboratory results taken from patent US9302999B2, “Substituted triazoles as herbicides” (E. I. DU PONT DE NEMOURS AND COMPANY, priority 2012, dated 2016).

Tests used:
Format in all cases: in vivo
[1] = test system: oat, wild (wild oat, Avena fatua); test: Test D pre-/postemergence: oat, wild
In short: (§1)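 Visual 0–100 rating versus untreated controls (0 no effect, 100 complete control), taken 14 to 21 days after treatment in a controlled growth environment. Preemergence: silt loam soil. Postemergence: peat moss/vermiculite medium, plants 2 to 18 cm, 1- to 4-leaf stage. Solvent mixture with surfactant.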

[2] = test system: barley, spring (spring barley, Hordeum vulgare); test: Test D pre-/postemergence: barley, spring
In short: as §1

[3] = test system: canarygrass (Phalaris minor); test: Test D pre-/postemergence: canarygrass
In short: as §1

[4] = test system: barley, winter (winter barley, Hordeum vulgare); test: Test D pre-/postemergence: barley, winter
In short: as §1

[5] = test system: field poppy (Papaver rhoeas); test: Test D pre-/postemergence: field poppy
From the text: (§2) Seeds of plant species selected from bluegrass (annual bluegrass, Poa annua), blackgrass (Alopecurus myosuroides), canarygrass (Phalaris minor), chickweed (common chickweed, Stellaria media), galium (catchweed bedstraw, Galium aparine), bromegrass, downy (downy bromegrass, Bromus tectorum), field poppy (Papaver rhoeas), field violet (Viola arvensis), foxtail, green (green foxtail, Setaria viridis), deadnettle (henbit deadnettle, Lamium amplexicaule), ryegrass, Italian (Italian ryegrass, Lolium multiflorum), kochia (Kochia scoparia), lambsquarters (Chenopodium album), oilseed rape (Brassica napus), pigweed (Amaranthus retroflexus), Russian thistle (Salsola iberica), chamomile (scentless chamomile, Matricaria inodora), speedwell (bird's-eye speedwell, Veronica persica), barley, spring (spring barley, Hordeum vulgare), wheat, spring (spring wheat, Triticum aestivum), buckwheat, wild (wild buckwheat, Polygonum convolvulus), mustard, wild (wild mustard, Sinapis arvensis), oat, wild (wild oat, Avena fatua), radish, wild (wild radish, Raphanus raphanistrum), windgrass (Apera spica-venti), barley, winter (winter barley, Hordeum vulgare), and wheat, winter (winter wheat, Triticum aestivum) were planted into a silt loam soil and treated preemergence with test chemicals formulated in a non-phytotoxic solvent mixture which included a surfactant. At the same time, these same crop and weed species were planted in pots containing the planting medium comprising spaghnum peat moss, vermiculite, wetting agent and starter nutrients and treated with postemergence applications of the test chemicals formulated in the same manner. Plants ranged in height from 2 to 18 cm (1- to 4-leaf stage).
(§3) Treated plants and controls were maintained in a controlled growth environment for 14 to 21 days after which time all species were compared to controls and visually evaluated. Plant response ratings, summarized in Table D, are based on a scale of 0 to 100 where 0 is no effect and 100 is complete control. A dash (-) response means no test result.

[6] = test system: radish, wild (wild radish, Raphanus raphanistrum); test: Test D pre-/postemergence: radish, wild
In short: as §1

[7] = test system: field violet (Viola arvensis); test: Test D pre-/postemergence: field violet
From the text: as §2, §3

[8] = Postemergence, 31 g ai/ha, scale 0 to 100 (0 no effect, 100 complete control)
[9] = Postemergence, 62 g ai/ha, scale 0 to 100 (0 no effect, 100 complete control)
[10] = Postemergence, 125 g ai/ha, scale 0 to 100, 0 no effect, 100 complete control
[11] = Postemergence, 16 g ai/ha, scale 0 to 100
[12] = Preemergence, 16 g ai/ha, scale 0 to 100, 0 no effect, 100 complete control
[13] = Preemergence, 31 g ai/ha, scale 0 to 100, 0 no effect, 100 complete control
[14] = Preemergence, 62 g ai/ha, scale 0 to 100
[15] = Preemergence, 125 g ai/ha, scale 0 to 100
[16] = Postemergence, 250 g ai/ha, scale 0 to 100 (0 no effect, 100 complete control)
[17] = Preemergence, 250 g ai/ha, scale 0 to 100

## Cc1nn(-c2ccc(F)c(C(F)(F)F)c2)nc1Cc1ccnc(C(F)(F)F)c1 [Compound 156]
[1]; [8]
  Plant response rating: Oat, Wild: 15
[1]; [9]
  Plant response rating: Oat, Wild: 20
[1]; [10]
  Plant response rating: Oat, Wild: 65
[1]; [11]
  Plant response rating, Oat, Wild: 10
[1]; [12]
  Plant response rating, Oat, Wild: 5
[1]; [13]
  Plant response rating, Oat, Wild: 10
[1]; [14]
  Plant response rating, Oat, Wild: 25
[1]; [15]
  Plant response rating, Oat, Wild: 90
[2]; [8]
  Plant response rating: Barley, Spring: 20
[2]; [9]
  Plant response rating: Barley, Spring: 25
[2]; [10]
  Plant response rating: Barley, Spring: 30
[2]; [11]
  Plant response rating, Barley, Spring: 15
[2]; [12]
  Plant response rating, Barley, Spring: 5
[2]; [13]
  Plant response rating, Barley, Spring: 5
[2]; [14]
  Plant response rating, Barley, Spring: 5
[2]; [15]
  Plant response rating, Barley, Spring: 15
[3]; [8]
  Plant response rating: Canarygrass: 30
[3]; [9]
  Plant response rating: Canarygrass: 65
[3]; [10]
  Plant response rating: Canarygrass: 80
[3]; [11]
  Plant response rating, Canarygrass: 15
[3]; [12]
  Plant response rating, Canarygrass: 15
[3]; [13]
  Plant response rating, Canarygrass: 70
[3]; [14]
  Plant response rating, Canarygrass: 100
[3]; [15]
  Plant response rating, Canarygrass: 100
[4]; [8]
  Plant response rating: Barley, Winter: 20
[4]; [9]
  Plant response rating: Barley, Winter: 25
[4]; [10]
  Plant response rating: Barley, Winter: 30
[4]; [11]
  Plant response rating, Barley, Winter: 10
[4]; [12]
  Plant response rating, Barley, Winter: 5
[4]; [13]
  Plant response rating, Barley, Winter: 5
[4]; [14]
  Plant response rating, Barley, Winter: 10
[4]; [15]
  Plant response rating, Barley, Winter: 15
[5]; [8]
  Plant response rating: Field Poppy: 100
[5]; [9]
  Plant response rating: Field Poppy: 100
[5]; [10]
  Plant response rating: Field Poppy: 100
[5]; [11]
  Plant response rating, Field Poppy: 85
[5]; [12]
  Plant response rating, Field Poppy: 85
[5]; [13]
  Plant response rating, Field Poppy: 100
[5]; [14]
  Plant response rating, Field Poppy: 95
[5]; [15]
  Plant response rating, Field Poppy: 100
[6]; [8]
  Plant response rating: Radish, Wild: 85
[6]; [9]
  Plant response rating: Radish, Wild: 100
[6]; [10]
  Plant response rating: Radish, Wild: 100
[6]; [11]
  Plant response rating, Radish, Wild: 65
[6]; [12]
  Plant response rating, Radish, Wild: 5
[6]; [13]
  Plant response rating, Radish, Wild: 10
[6]; [14]
  Plant response rating, Radish, Wild: 100
[6]; [15]
  Plant response rating, Radish, Wild: 100
[7]; [8]
  Plant response rating: Field Violet: 95
[7]; [9]
  Plant response rating: Field Violet: 95
[7]; [10]
  Plant response rating: Field Violet: 95
[7]; [11]
  Plant response rating, Field Violet: 95
[7]; [12]
  Plant response rating, Field Violet: 60
[7]; [13]
  Plant response rating, Field Violet: 95
[7]; [14]
  Plant response rating, Field Violet: 100
[7]; [15]
  Plant response rating, Field Violet: 100

## FC(F)(F)COc1nn(-c2ccc(C(F)(F)F)cc2)nc1Cc1ccnc(C(F)(F)F)c1 [Compound 14, 4-[[5-(2,2,2-trifluoroethoxy)-2-[4-(trifluoromethyl)phenyl]-2H-1,2,3-triazol-4-yl]methyl]-2-(trifluoromethyl)pyridine]
[1]; [8]
  Plant response rating: Oat, Wild: 15
[1]; [9]
  Plant response rating: Oat, Wild: 25
[1]; [10]
  Plant response rating: Oat, Wild: 40
[1]; [16]
  Plant response rating: Oat, Wild: 55
[1]; [13]
  Plant response rating, Oat, Wild: 0
[1]; [14]
  Plant response rating, Oat, Wild: 20
[1]; [15]
  Plant response rating, Oat, Wild: 20
[1]; [17]
  Plant response rating, Oat, Wild: 50
[2]; [8]
  Plant response rating: Barley, Spring: 25
[2]; [9]
  Plant response rating: Barley, Spring: 25
[2]; [10]
  Plant response rating: Barley, Spring: 30
[2]; [16]
  Plant response rating: Barley, Spring: 40
[2]; [13]
  Plant response rating, Barley, Spring: 0
[2]; [14]
  Plant response rating, Barley, Spring: 10
[2]; [15]
  Plant response rating, Barley, Spring: 15
[2]; [17]
  Plant response rating, Barley, Spring: 20
[3]; [8]
  Plant response rating: Canarygrass: 25
[3]; [9]
  Plant response rating: Canarygrass: 40
[3]; [10]
  Plant response rating: Canarygrass: 55
[3]; [16]
  Plant response rating: Canarygrass: 80
[3]; [13]
  Plant response rating, Canarygrass: 10
[3]; [14]
  Plant response rating, Canarygrass: 25
[3]; [15]
  Plant response rating, Canarygrass: 90
[3]; [17]
  Plant response rating, Canarygrass: 98
[4]; [8]
  Plant response rating: Barley, Winter: 10
[4]; [9]
  Plant response rating: Barley, Winter: 25
[4]; [10]
  Plant response rating: Barley, Winter: 35
[4]; [16]
  Plant response rating: Barley, Winter: 40
[4]; [13]
  Plant response rating, Barley, Winter: 0
[4]; [14]
  Plant response rating, Barley, Winter: 0
[4]; [15]
  Plant response rating, Barley, Winter: 10
[4]; [17]
  Plant response rating, Barley, Winter: 35
[5]; [8]
  Plant response rating: Field Poppy: 100
[5]; [9]
  Plant response rating: Field Poppy: 100
[5]; [10]
  Plant response rating: Field Poppy: 100
[5]; [16]
  Plant response rating: Field Poppy: 100
[6]; [8]
  Plant response rating: Radish, Wild: 70
[6]; [9]
  Plant response rating: Radish, Wild: 85
[6]; [10]
  Plant response rating: Radish, Wild: 100
[6]; [16]
  Plant response rating: Radish, Wild: 100
[6]; [14]
  Plant response rating, Radish, Wild: 40
[6]; [15]
  Plant response rating, Radish, Wild: 100
[6]; [17]
  Plant response rating, Radish, Wild: 100
[7]; [8]
  Plant response rating: Field Violet: 100
[7]; [9]
  Plant response rating: Field Violet: 100
[7]; [10]
  Plant response rating: Field Violet: 100
[7]; [16]
  Plant response rating: Field Violet: 100
[7]; [13]
  Plant response rating, Field Violet: 75
[7]; [14]
  Plant response rating, Field Violet: 90
[7]; [15]
  Plant response rating, Field Violet: 95
[7]; [17]
  Plant response rating, Field Violet: 95
